Assay results: ChEMBL document CHEMBL3621142, “Discovery and Evaluation of Clinical Candidate AZD3759, a Potent, Oral Active, Central Nervous System-Penetrant, Epidermal Growth Factor Receptor Tyrosine Kinase Inhibitor” (J Med Chem, 2015)
The source made the active and inactive calls. The rule behind the calls is not given here.

Key:
[1] = molecular target: Tyrosine-protein kinase Yes (Homo sapiens) (UniProt P07947); experiment: Inhibition of recombinant Yes (unknown origin) at 1 uM after 40 mins by scintillation counting analysis in presence of [gamma33P]-ATP
Cytochrome P450 3A4 = Cytochrome P450 3A4 (Homo sapiens, UniProt P08684); experiment: Inhibition of CYP3A4 (unknown origin); assay type: ADME
Cytochrome P450 2C8 = Cytochrome P450 2C8 (Homo sapiens, UniProt P10632); experiment: Inhibition of CYP2C8 (unknown origin); assay type: ADME
[2] = Cmax in beagle dog at 2 mg/kg, po; assay type: ADME, organism-based, Canis lupus familiaris; design: dose 2 mg/kg, route oral; conditions: in vivo
Cytochrome P450 1A2 = Cytochrome P450 1A2 (Homo sapiens, UniProt P05177); experiment: Inhibition of CYP1A2 (unknown origin); assay type: ADME
Cytochrome P450 2C9 = Cytochrome P450 2C9 (Homo sapiens, UniProt P11712); experiment: Inhibition of CYP2C9 (unknown origin); assay type: ADME
Cytochrome P450 2C9, sequence (P11712 whole entry): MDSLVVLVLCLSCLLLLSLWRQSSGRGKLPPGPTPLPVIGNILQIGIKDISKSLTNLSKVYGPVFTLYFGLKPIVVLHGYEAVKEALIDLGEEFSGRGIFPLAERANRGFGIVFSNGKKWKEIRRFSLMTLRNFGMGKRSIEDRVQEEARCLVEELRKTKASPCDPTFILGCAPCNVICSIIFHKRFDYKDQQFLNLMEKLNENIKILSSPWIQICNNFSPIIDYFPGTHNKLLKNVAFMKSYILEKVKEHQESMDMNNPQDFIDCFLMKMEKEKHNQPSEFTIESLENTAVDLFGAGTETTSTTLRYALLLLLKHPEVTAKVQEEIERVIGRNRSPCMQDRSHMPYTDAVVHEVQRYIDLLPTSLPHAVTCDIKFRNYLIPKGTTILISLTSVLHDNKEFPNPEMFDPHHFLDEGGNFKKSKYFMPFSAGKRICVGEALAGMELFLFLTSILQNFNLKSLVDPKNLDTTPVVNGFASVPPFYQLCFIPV

[3] = Elimination half life in Han Wistar rat at 2 mg/kg, po; assay type: ADME, organism-based; conditions: in vivo, read-out: beta t1/2 (converted)
[4] = Clearance in Han Wistar rat at 1 mg/kg, iv; assay type: ADME, organism-based; conditions: in vivo
Cytochrome P450 2D6 = Cytochrome P450 2D6 (Homo sapiens, UniProt P10635); experiment: Inhibition of CYP2D6 (unknown origin); assay type: ADME
Cytochrome P450 2D6, sequence (P10635 whole entry): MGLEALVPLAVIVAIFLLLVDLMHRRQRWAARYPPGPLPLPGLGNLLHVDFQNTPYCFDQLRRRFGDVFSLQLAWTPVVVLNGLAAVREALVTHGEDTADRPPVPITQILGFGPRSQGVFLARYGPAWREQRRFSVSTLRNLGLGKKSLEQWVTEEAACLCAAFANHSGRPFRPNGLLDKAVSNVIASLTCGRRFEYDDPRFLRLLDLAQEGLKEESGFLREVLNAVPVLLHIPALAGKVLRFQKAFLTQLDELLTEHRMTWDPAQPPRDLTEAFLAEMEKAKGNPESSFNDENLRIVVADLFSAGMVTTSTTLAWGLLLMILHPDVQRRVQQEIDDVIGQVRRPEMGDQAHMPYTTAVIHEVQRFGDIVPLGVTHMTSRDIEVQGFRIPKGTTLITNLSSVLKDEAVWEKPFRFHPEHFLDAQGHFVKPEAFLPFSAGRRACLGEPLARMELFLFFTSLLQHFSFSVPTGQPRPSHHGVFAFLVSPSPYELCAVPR

[5] = molecular target: T1, Vascular endothelial growth factor receptor 2 (Homo sapiens, UniProt P35968); experiment: Inhibition of recombinant KDR (unknown origin) at 1 uM after 40 mins by scintillation counting analysis in presence of [gamma33P]-ATP
T1 sequence (P35968 whole entry): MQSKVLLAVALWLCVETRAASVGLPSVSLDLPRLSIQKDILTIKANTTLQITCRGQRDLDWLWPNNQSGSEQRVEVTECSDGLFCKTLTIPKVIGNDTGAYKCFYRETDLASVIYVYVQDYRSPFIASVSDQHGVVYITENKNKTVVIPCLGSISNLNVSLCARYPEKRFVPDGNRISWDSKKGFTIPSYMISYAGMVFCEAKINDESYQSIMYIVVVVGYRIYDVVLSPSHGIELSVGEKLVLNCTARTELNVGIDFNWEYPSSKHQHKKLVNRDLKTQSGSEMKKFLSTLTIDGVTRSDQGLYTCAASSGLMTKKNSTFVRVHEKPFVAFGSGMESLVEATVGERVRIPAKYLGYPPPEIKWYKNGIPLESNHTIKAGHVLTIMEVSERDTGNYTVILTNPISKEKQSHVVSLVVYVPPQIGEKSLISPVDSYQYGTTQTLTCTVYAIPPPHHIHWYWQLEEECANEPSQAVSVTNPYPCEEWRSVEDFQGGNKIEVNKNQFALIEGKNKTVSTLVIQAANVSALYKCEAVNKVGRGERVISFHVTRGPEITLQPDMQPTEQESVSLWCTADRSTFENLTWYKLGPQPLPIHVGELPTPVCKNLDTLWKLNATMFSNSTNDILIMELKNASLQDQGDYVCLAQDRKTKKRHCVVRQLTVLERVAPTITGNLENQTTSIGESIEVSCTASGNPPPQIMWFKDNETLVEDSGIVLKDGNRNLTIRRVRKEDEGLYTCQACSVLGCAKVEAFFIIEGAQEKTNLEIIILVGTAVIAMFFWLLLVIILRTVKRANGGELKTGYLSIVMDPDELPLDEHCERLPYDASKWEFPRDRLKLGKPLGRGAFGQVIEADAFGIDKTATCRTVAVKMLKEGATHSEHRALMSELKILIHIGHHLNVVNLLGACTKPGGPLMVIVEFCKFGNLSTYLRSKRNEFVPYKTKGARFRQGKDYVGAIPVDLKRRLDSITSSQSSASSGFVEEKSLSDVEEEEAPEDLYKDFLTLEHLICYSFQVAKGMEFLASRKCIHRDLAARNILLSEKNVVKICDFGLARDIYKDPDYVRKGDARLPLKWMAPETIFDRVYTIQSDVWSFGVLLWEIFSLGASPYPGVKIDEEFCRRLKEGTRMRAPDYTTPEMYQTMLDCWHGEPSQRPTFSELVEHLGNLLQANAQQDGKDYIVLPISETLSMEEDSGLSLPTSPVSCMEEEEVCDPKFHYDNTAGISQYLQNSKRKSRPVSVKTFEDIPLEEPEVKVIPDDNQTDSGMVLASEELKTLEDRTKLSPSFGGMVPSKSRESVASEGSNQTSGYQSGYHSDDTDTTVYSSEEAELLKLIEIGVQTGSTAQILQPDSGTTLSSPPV

[6] = Elimination half life in beagle dog at 2 mg/kg, po; assay type: ADME, organism-based, Canis lupus familiaris; conditions: in vivo, read-out: beta t1/2 (converted)
[7] = Fraction unbound in Han Wistar rat brain at 5 uM by equilibrium dialysis method; assay type: ADME, tissue-based; conditions: Han Wistar, brain
[8] = Fraction unbound in Han Wistar rat blood at 5 uM by equilibrium dialysis method; assay type: ADME, tissue-based; conditions: Han Wistar
[9] = molecular target: T1, Vascular endothelial growth factor receptor 2; experiment: Inhibition of recombinant KDR (unknown origin) after 40 mins by scintillation counting analysis in presence of [gamma33P]-ATP
PC-9 [10] = experiment: Antitumor activity against human PC9 cells expressing EGFR exon19 deletion mutant xenografted in mouse assessed as decrease in tumor area in brain at 7.5 mg/kg, qd; assay type: functional, organism-based
[11] = Antitumor activity against human PC9 cells expressing EGFR exon19 deletion mutant xenografted in mouse assessed as tumor growth inhibition at 7.5 mg/kg, qd measured after 4 weeks; assay type: functional; conditions: PC-9, 672 h
[12] = AUC(0 to 24 hrs) in beagle dog at 2 mg/kg, po; assay type: ADME, organism-based, Canis lupus familiaris; design: dose 2 mg/kg, time < 24 hr, route oral; conditions: in vivo
[13] = AUC(0 to 24 hrs) in Han Wistar rat at 2 mg/kg, po; assay type: ADME, organism-based; design: dose 2 mg/kg, time < 24 hr, route oral; conditions: Han Wistar, in vivo
Mus musculus [14] = experiment: Toxicity in PC9 cells expressing EGFR exon19 deletion mutant xenografted mouse assessed as loss of body weight at 7.5 mg/kg, qd; assay type: organism-based, PC-9; conditions: in vivo
[15] = Clearance in beagle dog at 1 mg/kg, iv; assay type: ADME, organism-based, Canis lupus familiaris; conditions: in vivo
[16] = AUC (0 to 7 hrs) in Han Wistar rat blood at 2 mg/kg, po by LC-MS/MS analysis; assay type: ADME, organism-based; design: dose 2 mg/kg, time < 7 hr, route oral; conditions: Han Wistar, blood
[17] = molecular target: T2, Proto-oncogene tyrosine-protein kinase Src (Homo sapiens, UniProt P12931); experiment: Inhibition of recombinant Src (unknown origin) after 40 mins by scintillation counting analysis in presence of [gamma33P]-ATP
T2 sequence (P12931 2-536 limits assumed): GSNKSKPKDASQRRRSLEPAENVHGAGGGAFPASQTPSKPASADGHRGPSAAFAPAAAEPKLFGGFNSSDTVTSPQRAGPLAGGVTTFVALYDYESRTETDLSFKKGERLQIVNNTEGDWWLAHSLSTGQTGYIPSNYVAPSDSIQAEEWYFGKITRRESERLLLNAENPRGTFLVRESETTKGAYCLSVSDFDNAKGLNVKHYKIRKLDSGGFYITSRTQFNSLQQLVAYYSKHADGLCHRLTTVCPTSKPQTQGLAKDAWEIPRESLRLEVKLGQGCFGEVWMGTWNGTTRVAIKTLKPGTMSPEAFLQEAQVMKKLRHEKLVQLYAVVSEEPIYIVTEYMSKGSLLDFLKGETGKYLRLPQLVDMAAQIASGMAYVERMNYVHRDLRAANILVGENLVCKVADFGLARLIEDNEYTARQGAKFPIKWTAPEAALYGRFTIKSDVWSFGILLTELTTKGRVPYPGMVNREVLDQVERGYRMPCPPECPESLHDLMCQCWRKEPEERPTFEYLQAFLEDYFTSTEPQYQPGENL

[18] = Antiproliferative against human H3255 cells expressing EGFR L858R mutant after 72 hrs by MTS assay; assay type: functional, cell-based; conditions: NCI-H3255, 72 h
PC-9 [19] = experiment: Antitumor activity against human PC9 cells expressing EGFR exon19 deletion mutant xenografted in mouse assessed as modulation of pEGFR expression in brain at 15 mg/kg administered as single dose measured after 1 hr by immunohistochemical analysis; assay type: functional, organism-based
[20] = Ratio of fraction unbound in brain to plasma of cynomolgus monkey at 155 MBq, iv by positron emission tomography; assay type: ADME, organism-based, Macaca fascicularis
[21] = molecular target: Tyrosine-protein kinase Fyn (Homo sapiens) (UniProt P06241); experiment: Inhibition of recombinant Fyn (unknown origin) at 1 uM after 40 mins by scintillation counting analysis in presence of [gamma33P]-ATP
PC-9 [22] = experiment: Antitumor activity against human PC9 cells expressing EGFR exon19 deletion mutant xenografted in mouse assessed as decrease in tumor area in brain at 15 mg/kg, qd; assay type: functional, organism-based
[23] = Permeability from apical to basolateral side in MDCK2-MDR1 cells; assay type: ADME, cell-based, Canis lupus familiaris, MDCK-II; conditions: dog, MDCK-MDR1
[24] = Ratio of unbound AUC (0 to 7 hrs) in brain to blood of Han Wistar rat at 2 mg/kg, po by LC-MS/MS analysis; assay type: ADME, organism-based; conditions: Han Wistar, brain and blood, read-out: K(p,uu,brain)
[25] = molecular target: Tyrosine-protein kinase Lyn (Homo sapiens) (UniProt P07948); experiment: Inhibition of recombinant Lyn (unknown origin) at 1 uM after 40 mins by scintillation counting analysis in presence of [gamma33P]-ATP
Cytochrome P450 2C19 = Cytochrome P450 2C19 (Homo sapiens, UniProt P33261); experiment: Inhibition of CYP2C19 (unknown origin); assay type: ADME
[26] = molecular target: Ephrin type-B receptor 4 (Homo sapiens) (UniProt P54760); experiment: Inhibition of recombinant EpHB4 (unknown origin) at 1 uM after 40 mins by scintillation counting analysis in presence of [gamma33P]-ATP
Ephrin type-B receptor 4 (Homo sapiens), sequence (P54760 whole entry): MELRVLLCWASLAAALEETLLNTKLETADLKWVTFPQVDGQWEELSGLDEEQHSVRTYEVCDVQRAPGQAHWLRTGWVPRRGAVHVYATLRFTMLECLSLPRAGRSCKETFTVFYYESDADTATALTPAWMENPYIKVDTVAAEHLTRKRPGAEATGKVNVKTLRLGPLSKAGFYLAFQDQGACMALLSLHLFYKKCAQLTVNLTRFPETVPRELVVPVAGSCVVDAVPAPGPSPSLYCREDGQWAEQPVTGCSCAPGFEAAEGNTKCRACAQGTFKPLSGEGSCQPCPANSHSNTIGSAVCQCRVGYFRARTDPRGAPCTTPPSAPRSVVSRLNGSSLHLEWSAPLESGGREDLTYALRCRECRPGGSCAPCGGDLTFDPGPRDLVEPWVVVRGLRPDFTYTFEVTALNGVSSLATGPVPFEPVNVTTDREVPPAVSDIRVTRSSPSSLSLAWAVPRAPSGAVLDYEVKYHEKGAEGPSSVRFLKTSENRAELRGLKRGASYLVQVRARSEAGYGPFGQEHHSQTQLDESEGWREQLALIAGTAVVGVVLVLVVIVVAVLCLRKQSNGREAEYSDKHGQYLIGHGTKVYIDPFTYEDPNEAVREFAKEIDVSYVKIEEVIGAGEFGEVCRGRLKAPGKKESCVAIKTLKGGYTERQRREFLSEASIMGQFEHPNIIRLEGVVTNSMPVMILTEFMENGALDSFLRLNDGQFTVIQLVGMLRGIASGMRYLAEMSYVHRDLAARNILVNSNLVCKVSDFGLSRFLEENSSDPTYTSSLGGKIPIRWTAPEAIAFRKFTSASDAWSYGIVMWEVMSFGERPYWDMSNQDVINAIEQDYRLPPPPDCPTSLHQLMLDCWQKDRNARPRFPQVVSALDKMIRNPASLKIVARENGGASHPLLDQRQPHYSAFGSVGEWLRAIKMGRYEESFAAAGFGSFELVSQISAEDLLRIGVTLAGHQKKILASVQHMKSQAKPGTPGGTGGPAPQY

Cytochrome P450 3A5 = Cytochrome P450 3A5 (Homo sapiens, UniProt P20815); experiment: Inhibition of CYP3A5 (unknown origin); assay type: ADME
Cytochrome P450 3A5, sequence (P20815 whole entry): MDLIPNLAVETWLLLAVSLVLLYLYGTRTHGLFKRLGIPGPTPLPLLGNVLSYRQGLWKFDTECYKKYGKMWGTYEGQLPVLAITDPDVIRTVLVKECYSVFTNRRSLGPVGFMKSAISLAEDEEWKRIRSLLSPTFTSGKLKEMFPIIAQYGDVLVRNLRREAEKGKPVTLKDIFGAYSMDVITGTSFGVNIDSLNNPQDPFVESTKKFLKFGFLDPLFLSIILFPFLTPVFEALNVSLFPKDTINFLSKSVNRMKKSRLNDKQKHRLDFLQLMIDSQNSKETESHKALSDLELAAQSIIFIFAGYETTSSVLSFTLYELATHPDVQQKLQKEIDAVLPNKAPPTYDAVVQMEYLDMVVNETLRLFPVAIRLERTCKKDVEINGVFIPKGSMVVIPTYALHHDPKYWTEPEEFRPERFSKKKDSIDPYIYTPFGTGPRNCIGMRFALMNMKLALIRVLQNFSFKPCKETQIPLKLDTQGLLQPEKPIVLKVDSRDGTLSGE

D(2) dopamine receptor = D(2) dopamine receptor (Homo sapiens, UniProt P14416); experiment: Inhibition of recombinant D2 receptor (unknown origin)
[27] = Antiproliferative against human PC9 cells expressing EGFR exon19 deletion mutant after 72 hrs by MTS assay; assay type: functional, cell-based; conditions: PC-9, 72 h
[28] = Volume of distribution at steady state in beagle dog at 1 mg/kg, iv; assay type: ADME, organism-based, Canis lupus familiaris; conditions: in vivo, read-out: Vdss
[29] = Elimination half life in Han Wistar rat at 1 mg/kg, iv; assay type: ADME, organism-based; conditions: Han Wistar, in vivo, read-out: beta t1/2 (converted)
[30] = molecular target: Tyrosine-protein kinase Lck (Homo sapiens) (UniProt P06239); experiment: Inhibition of recombinant Lck (unknown origin) at 1 uM after 40 mins by scintillation counting analysis in presence of [gamma33P]-ATP
Tyrosine-protein kinase Lck (Homo sapiens), sequence (P06239 2-509 limits assumed): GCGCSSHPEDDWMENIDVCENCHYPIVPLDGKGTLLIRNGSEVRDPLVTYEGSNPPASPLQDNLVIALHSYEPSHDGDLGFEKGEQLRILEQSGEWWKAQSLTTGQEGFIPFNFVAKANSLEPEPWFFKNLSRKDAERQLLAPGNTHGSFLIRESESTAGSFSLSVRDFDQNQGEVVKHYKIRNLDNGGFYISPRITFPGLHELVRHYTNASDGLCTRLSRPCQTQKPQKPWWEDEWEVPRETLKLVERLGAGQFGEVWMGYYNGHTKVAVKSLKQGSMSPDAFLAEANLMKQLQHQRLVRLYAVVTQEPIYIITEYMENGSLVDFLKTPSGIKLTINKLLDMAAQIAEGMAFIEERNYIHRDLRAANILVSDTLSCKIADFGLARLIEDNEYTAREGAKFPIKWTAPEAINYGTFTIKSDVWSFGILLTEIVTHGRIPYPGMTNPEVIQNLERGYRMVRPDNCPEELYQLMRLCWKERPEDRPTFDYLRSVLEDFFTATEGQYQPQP

Hepatocyte = experiment: Intrinsic clearance in human hepatocytes; assay type: ADME, cell-based
[31] = Cmax in Han Wistar rat at 2 mg/kg, po at 1 hr; assay type: ADME, organism-based; design: dose 2 mg/kg, route oral; conditions: in vivo
Mus musculus [32] = experiment: Toxicity in PC9 cells expressing EGFR exon19 deletion mutant xenografted mouse assessed as loss of body weight at 15 mg/kg, qd; assay type: organism-based, PC-9; conditions: in vivo
[33] = Oral bioavailability in Han Wistar rat at 2 mg/kg; assay type: ADME, organism-based; conditions: Han Wistar, in vivo
[34] = Ratio of unbound AUC (0 to 7 hrs) in CSF to blood of Han Wistar rat at 2 mg/kg, po by LC-MS/MS analysis; assay type: ADME, organism-based; conditions: Han Wistar, CSF and blood
[35] = molecular target: T2, Proto-oncogene tyrosine-protein kinase Src; experiment: Inhibition of recombinant Src (unknown origin) at 1 uM after 40 mins by scintillation counting analysis in presence of [gamma33P]-ATP
[36] = Ratio of fraction unbound in brain to plasma of cynomolgus monkey at 150 MBq, iv by positron emission tomography; assay type: ADME, organism-based, Macaca fascicularis
PC-9 [37] = experiment: Antitumor activity against human PC9 cells expressing EGFR exon19 deletion mutant xenografted in mouse measured after 4 weeks; assay type: functional, cell-based
NCI-H838 = experiment: Antiproliferative against human NCI-H838 cells expressing EGFR wild-type after 72 hrs by MTS assay; assay type: functional, cell-based; conditions: NCI-H838, 72 h
[38] = molecular target: Vascular endothelial growth factor receptor 1 (Homo sapiens) (UniProt P17948); experiment: Inhibition of recombinant Flt (unknown origin) at 1 uM after 40 mins by scintillation counting analysis in presence of [gamma33P]-ATP
[39] = Volume of distribution at steady state in Han Wistar rat at 1 mg/kg, iv; assay type: ADME, organism-based; conditions: Han Wistar, in vivo, read-out: Vdss
Cytochrome P450 2B6 = Cytochrome P450 2B6 (Homo sapiens, UniProt P20813); experiment: Inhibition of CYP2B6 (unknown origin); assay type: ADME
[40] = Oral bioavailability in beagle dog at 2 mg/kg; assay type: ADME, organism-based, Canis lupus familiaris; conditions: in vivo
PC-9 [41] = experiment: Antitumor activity against human PC9 cells expressing EGFR exon19 deletion mutant xenografted in mouse assessed as tumor regression at 15 mg/kg, qd measured after 4 weeks; assay type: functional, organism-based
[42] = AUC(0 to 24 hrs) in beagle dog at 1 mg/kg, iv; assay type: ADME, organism-based, Canis lupus familiaris; design: dose 1 mg/kg, time < 24 hr, route intravenous; conditions: in vivo
[43] = Elimination half life in beagle dog at 1 mg/kg, iv; assay type: ADME, organism-based, Canis lupus familiaris; conditions: in vivo, read-out: beta t1/2 (converted)
[44] = AUC (0 to 7 hrs) in Han Wistar rat CSF at 2 mg/kg, po by LC-MS/MS analysis; assay type: ADME, organism-based, Cerebrospinal fluid; design: time < 7 hr, dose 2 mg/kg, route oral; conditions: Han Wistar, CSF
[45] = Tmax in beagle dog at 2 mg/kg, po; assay type: ADME, organism-based, Canis lupus familiaris; conditions: in vivo
[46] = AUC (0 to 7 hrs) in Han Wistar rat brain at 2 mg/kg, po by LC-MS/MS analysis; assay type: ADME, organism-based; design: dose 2 mg/kg, time < 7 hr, route oral; conditions: Han Wistar, brain

For `COc1cc2ncnc(Nc3cccc(Cl)c3F)c2cc1OC(=O)N1CCN(C)C[C@H]1C` [AZD-3759], the inhibition [1] was 87%, the IC50 (Cytochrome P450 3A4) was > 50 µM and the IC50 (Cytochrome P450 2C8) was > 50 µM. The Cmax [2] was 698 nM, the IC50 (Cytochrome P450 1A2) was > 50 µM and the IC50 (Cytochrome P450 2C9) was > 50 µM. The half-life [3] was 4.3 h, the clearance [4] was 17 mL/min/kg and the IC50 (Cytochrome P450 2D6) was > 50 µM. For the same compound, the inhibition [5] was 62%, the half-life [6] was 5.5 h and the fraction unbound at 5 µM [7] was 0.02. The fraction unbound at 5 µM [8] was 0.047, the IC50 [9] was 0.156 µM and the inhibition (PC-9 [10]) was “Active”. For the same compound, the inhibition in vivo at 7.5 mg/kg [11] was 78%, the AUC(0-t) at 24 h [12] was 4.62 µM·h and the AUC(0-t) at 24 h [13] was 3.8 µM·h. The Activity (Mus musculus [14]) was < 20%, the clearance [15] was 14 mL/min/kg and the AUC(0-t) at 7 h [16] was 1.23 µM·h. The IC50 [17] was 0.622 µM, the IC50 [18] was 0.007 µM and the Activity (PC-9 [19]) was “Active”. For the same compound, the BPR [20] was 0.53, the inhibition [21] was 58% and the inhibition (PC-9 [22]) was “Active”. It also gave a Papp A→B [23] of 36 ×10⁻⁶ cm/s, a Kp uu [24] of 1.3 and an inhibition [25] of 74%. The IC50 (Cytochrome P450 2C19) was > 50 µM, the inhibition [26] was 83% and the IC50 (Cytochrome P450 3A5) was > 50 µM. For the same compound, the IC50 (D(2) dopamine receptor) was 0.797 µM, the IC50 [27] was 0.0077 µM and the Vd [28] was 6.4 L/kg. It also gave a half-life [29] of 4.1 h, an inhibition [30] of 61% and a CLH (Hepatocyte) of 11.4 µL/min. The Cmax [31] was 580 nM, the Activity (Mus musculus [32]) was < 20% and the bioavailability [33] was 91%. The Kp uu [34] was 1.3, the inhibition [35] was 69% and the BPR [36] was 0.5. The Activity (PC-9 [37]) was “Dose-dependent effect”, the IC50 (NCI-H838) was 21.6 µM and the inhibition [38] was 57%. The Vd [39] was 5.2 L/kg, the IC50 (Cytochrome P450 2B6) was > 50 µM and the bioavailability [40] was 90.2%. The Activity (PC-9 [41]) was “Active”, the AUC(0-t) at 24 h [42] was 2.56 µM·h and the half-life [43] was 6.2 h. The AUC(0-t) at 7 h [44] was 0.076 µM·h, the Tmax [45] was 0.5 h and the AUC(0-t) at 7 h [46] was 3.69 µM·h.
